Assay results taken from patent US20230381774A1, “MICROFLUDIC LAB-ON-CHIP DEVICE, MATRIX, SMALL MOLECULES AND THREE-DIMENSIONAL SPHEROIDS FOR CELL REPROGRAMMING” (The Regents of the University of California, priority 2022, published 2023).
“Also recorded” adds a separate entry of the source.

Assays:
Assay type in all cases: cell-based, mouse
[1] = tested on: BAM-transduced fibroblasts; test: iN reprogramming of BAM-transduced fibroblasts with cytoskeletal and adhesion inhibitors (TUBB3+ iN cells, 2 weeks); conditions: for dose response of reprogramming efficiency: varying concentrations
Experimental: To examine whether these changes in cell stiffness, actin structure and expression of contractility-mediating genes were involved in iN reprogramming, we evaluated the effects of disrupting the cytoskeleton using small molecule inhibitors. For these experiments, BAM-transduced fibroblasts were reprogrammed as in FIG. 1A and chemical compounds known to perturb the cytoskeleton were added to the culture medium on day 1 to evaluate their effects on the reprogramming process. […] The reprogramming efficiency was determined as the percentage of TUBB3*-iN cells normalized to the number of cells plated at 24 hours post-seeding (i.e., day 0). First, we tested whether disruption of cytoskeletal contractility could influence the direct reprogramming of fibroblasts into neurons using blebbistatin, a non-muscle myosin II inhibitor^22-24. We observed that iN cells could be derived in the absence and presence of blebbistatin (FIG. 3A). […] In particular, treatment with 10 μM blebbistatin generated the highest number of iN cells and increased the reprogramming efficiency by approximately 4.5-fold compared to the control, therefore, this concentration was used in all subsequent experiments. […] As Ascl1 has been identified as a pioneer factor for iN reprogramming and transduction of Ascl1 alone is sufficient to generate iN cells^25,26, we further investigated whether blebbistatin could influence iN conversion by Ascl1 induction.
(§1) After transduction, mouse fibroblasts were seeded onto multi-well tissue culture-treated polystyrene dishes (Falcon) coated with laminin (0.1 mg/ml, Corning) at 4,000 cells per cm^2. Twenty-four hours after seeding, the medium was replaced to MEF medium containing doxycycline (2 μg/ml, Sigma). The following day (i.e., day 1) the medium was changed to N3 medium (DMEM/F12 [GIBCO]+N2 supplement [Invitrogen]+B27 supplement [Invitrogen]+1% penicillin/streptomycin [Gibco]+ doxycycline [2 μg/ml, Sigma]) and the cultures were maintained in this medium for the duration of the experiments. For Ascl1-only reprogramming, N3 medium was further supplemented with BDNF (5 ng/ml, R&D systems) and GDNF (5 ng/ml, R&D systems) after day 7. For cytoskeletal and cell adhesion disruptions, Blebbistatin (Millipore), Y-27632 (20 μM; Cayman Chemical), Nocodazole (0.3 μM; Sigma), Cytochalasin D (1 μM; Sigma), Jasplakinolide (0.05 μM; Cayman Chemical) and PF573228 (Sigma) were administered in N3 medium on day 1 and for the first 7 days of reprogramming (unless stated otherwise) and used at the indicated concentrations. Culture medium was replenished every 2 days during reprogramming to maintain the activity of the small molecules. After culturing for the desired length (14 days for BAM and 21 days for Ascl1 only), the induced neuronal (iN) cells were analyzed and the reprogramming efficiency was determined.
The reprogramming efficiency was determined by as the percentage of TUBB3^+ iN cells in each condition normalized to the number of cells plated at 24 hours post-seeding. Epifluorescence images were collected using a Zeiss Axio Observer.D1, Zeiss Axio Observer.Z1, and ImageXpress Micro XLS System (Molecular Devices), whereas confocal images were acquired using a Zeiss LSM710 microscope and Leica SP8 Confocal Laser Scanning microscope.

5-methylcytosine (5-mC) = test: Global DNA methylation (5-mC) assay; conditions: non-transduced fibroblasts, 24 hours, vs control
Experimental: DNA was isolated from non-transduced fibroblasts treated with vehicle control (DMSO), 10 μM blebbistatin and 5 μM PF573228, respectively, for 24 hours using the PureLink Genomic DNA mini kit (Invitrogen) according to the manufacturer's instructions. To detect global DNA methylation (5-mC) levels in the samples, we utilized the MethylFlash Global DNA Methylation (5-mC) ELISA Easy kit (Epigentek) according to the manufacturer's protocol. 100 ng of DNA sample was utilized per reaction and after adding the color developer solution, the absorbance was measured using a plate reader (Infinite […], 30050303) at 450 nm.

ERK = test: Downstream ERK signaling (Western blot)
Experimental: Fibroblasts were lysed and collected in Laemmli buffer ([…] Tris-HCl, 10% glycerol, 2% SDS, 5% 2-mercaptoethanol, 0.002% bromophenol blue) containing RIPA buffer (50 mM Tris-HCl, 150 mM NaCl, 1% Triton-X-100, 0.1% SDS, 10 mM NaF, 0.5% sodium deoxycholate) along with protease inhibitors (PMSF, Na3VO4 and Leupeptin) on ice. Protein lysates were centrifuged to pellet cell debris, and the supernatant was collected and used in further analysis. Protein samples were run using SDS-PAGE and transferred to polyvinylidene fluoride (PVDF) membranes. Membranes were blocked in 3% nonfat milk and incubated with primary antibodies overnight. Primary antibodies include pFAK, FAK, αSMA, Calponin, pERK, ERK, and GAPDH. Membranes were washed with Tris-Buffered Saline+0.05% Tween-20 and incubated with HRP-conjugated IgG secondary antibodies (Santa Cruz Biotechnologies) for one hour. Protein bands were visualized using Western Lightning™ Plus—Enhanced Chemiluminscence Substrate (Perkin Elmer Life & Analytical Sciences) and imaged on a ChemiDoc XRS system (Bio-Rad).

[2] = tested on: Ascl1-transduced fibroblasts; test: Single-factor (Ascl1-only) iN reprogramming; conditions: 10 μM, relative to control
Experimental: as §1, with “For cytoskeletal and cell adhesion disruptions, Blebbistatin (Millipore), Y-27632 (20 μM; Cayman Chemical), Nocodazole (0.3 μM; Sigma), Cytochalasin D (1 μM; Sigma), Jasplakinolide (0.05 μM; Cayman Chemical) and PF573228 (Sigma) were administered in N3 medium on day 1 and for the first 7 days of reprogramming (unless stated otherwise) and used at the indicated concentrations. Culture medium was replenished every 2 days during reprogramming to maintain the activity of the small molecules.” left out
The reprogramming efficiency was determined by as the percentage of TUBB3^+ iN cells in each condition normalized to the number of cells plated at 24 hours post-seeding. […]

fibroblasts = test: Cell morphology, actin and focal adhesion immunostaining; conditions: 24 hours
Experimental: For immunostaining, cells were fixed with 4% paraformaldehyde (Electron Microscopy Sciences), permeabilized with 0.5% Triton-X-100 (Sigma), and blocked with 5% donkey serum (Jackson Immunoresearch) in phosphate buffered saline (PBS). For actin-cytoskeleton staining, samples were incubated with fluorescein isothiocyanate-conjugated phalloidin (Invitrogen) for 1 hour. Primary antibodies were incubated for 1 hour at room temperature or overnight at 4° C., followed by 1-hour incubation with Alexa 488 and/or Alexa 546-labeled secondary antibodies (Molecular Probes). Nuclei were stained with 4,6-diamino-2-phenylindole (DAPI) (Invitrogen).

| Structure (SMILES) | dose response of reprogramming efficiency [1] | DNA methylation (5-mC) (5-methylcytosine (5-mC)) | downstream ERK signaling (ERK) | concentration generating the highest number of iN cells [1] | time course of TUBB3+ iN cell generation ([1]; as early as day 5) | phase of reprogramming in which treatment is effective ([1]; early days 1-5, mid days 5-9, late days 9-13, 10 μM) | reprogramming efficiency in Tau-EGFP fibroblasts ([1]; mouse fibroblasts isolated from Tau-EGFP mice) | length of treatment sufficient to enhance reprogramming efficiency ([1]; treatment over timescales of 1 to 14 days) | iN cell generation from Ascl1-transduced fibroblasts [2] | actin fibers (fibroblasts) | paxillin punctate (fibroblasts) | cell morphology and spreading (fibroblasts; 10 μM) |
| --- | --- | --- | --- | --- | --- | --- | --- | --- | --- | --- | --- | --- |
| CS(=O)(=O)c1cccc(CNc2nc(Nc3ccc4c(c3)CCC(=O)N4)ncc2C(F)(F)F)c1 [PF573228] | significantly increased the reprogramming efficiency in a biphasic manner; also recorded: promoted iN reprogramming in a biphasic manner | lower levels of DNA methylation | modulated downstream ERK signaling |  |  |  |  |  |  |  |  |  |
| Cc1ccc2c(c1)C(=O)C1(O)CCN(c3ccccc3)C1=N2 (centres unmarked) [blebbistatin] | biphasic dose response | a decrease in the abundance of DNA methylation marker, 5-methylcytosine (5-mC) |  | 10 µM | led to more efficient generation of TUBB3^+ iN cells than the control | most crucial during the early phase of reprogramming | enhanced reprogramming efficiency by blebbistatin was also confirmed | 3 days | could generate significantly more iN cells from Ascl1-transduced fibroblasts relative to control | fewer intact actin fibers | fewer positive paxillin punctate | induced dramatic changes in cell morphology and reduced cell spreading |
